Measurements taken from patent US10897901B2, “Herbicidal composition” (FMC Corporation, priority 2007, dated 2021).

Tests used:
Assay type in all cases: in vivo
[1] = tested on: Smooth Crabgrass (Digitaria ischaemum); assay: Example 1 post-emergent turf plot test, 3 leaf/2 tiller crabgrass; conditions: 0.75 lb ai/acre
Protocol: (§1) The experimental design used randomized plots with post-emergent treatment and three replications per test trial. The size of each experimental plot was 4 feet by 6 feet. The application of each test composition was performed with pressurized back-pack sprayers, calibrated to spray 200 gallons per acre. Test compositions containing sulfentrazone (DISMISS™ Turf Herbicide), quniclorac, (FACET® 75 DF herbicide) or a mixture of sulfentrazone and quinclorac in a 1:3 ratio, prepared as described above, were diluted with water to provide the appropriate test rate concentrations.
(§2) The control of weeds was evaluated in each experimental plot from 7 to 41 days after treatment (DAT) of each test rate. The results, shown as an average of the replications, were compared with results observed in untreated control plots in the same trials.

[2] = tested on: Field Violet (Viola arvensis); assay: Example 1 post-emergent turf plot test, violet; conditions: 0.75 lb ai/acre
Protocol: as §1, §2

[3] = tested on: White Clover (Trifolium repens); assay: Example 1 post-emergent turf plot test, clover; conditions: 0.75 lb ai/acre
Protocol: as §1, §2

[4] = tested on: Yellow Nutsedge (Cyperus esculentus); assay: Example 1 post-emergent turf plot test, nutsedge; conditions: 0.75 lb ai/acre
Protocol: as §1, §2

[5] = tested on: White Clover (Trifolium repens); assay: Example 2 post-emergent turf plot test, clover; conditions: 0.75 lb ai/acre
Protocol: as §1, with “quinclorac,” for “quniclorac,”, “one to three” for “1:3”
(§3) The control of weeds was evaluated in each experimental plot from 1 to 27 days after treatment (DAT) of each test rate. The results, shown as an average of the replications, were compared with results observed in untreated control plots in the same trials.

[6] = tested on: Blackseed Plantain (Plantago rugelii); assay: Example 2 post-emergent turf plot test, plantain; conditions: 0.75 lb ai/acre
Protocol: as §1, with “quinclorac,” for “quniclorac,”, “one to three” for “1:3”
as §3

crabgrass (Digitaria sp) = assay: Example 4 post-emergence greenhouse pot test, crabgrass
Protocol: (§4) Test compositions containing sulfentrazone (75 DF formulation), quniclorac, (DRIVE® 75 DF Herbicide) or mixtures of sulfentrazone and quinclorac at ratios of 1:1 to 1:5, were diluted with water to provide the appropriate test rate concentrations. A nonionic surfactant (0.25%) was added to each test solution. The test weeds include crabgrass (Digitaria sp), Chickweed (Stellaria media), Hemp Sesbania (Sesbania exaltata), Kochia (Kochia scoparia), Ivyleaf Morningglory (Ipomoea hederacea), Redroot Pigweed (Amaranthus retroflexus) and yellow nutsedge (Cyperus esculentusi).
(§5) For post-emergence testing, three disposable 3 inch square pots for each rate of application of each herbicide were filled with a soil, comprised of peat moss, vermiculite, bark ash, pine bark, limestone and a wetting agent, to which 8 to 10 seeds were planted. The pots were placed in a greenhouse and watered daily, thus allowing the seeds to germinate and the foliage to develop for 22 days, 3 months for Kochia.
(§6) Pots designated for treatment were placed on a conveyor belt and the conveyor belt fed under a spray nozzle mounted about ten inches above the foliage. The spray of herbicidal solution was commenced and once stabilized; the pots were passed under the spray at a speed to receive a coverage equivalent of 30 gallons per acre. The application rates are those shown in Table 4 below for the individual herbicidal solutions and the mixture of sulfentrazone and quinclorac. The post-emergence pots were immediately placed in the green-house and not watered until 24 hours after treatment with the test solution. Thereafter they were regularly watered at ground level. The control of weeds was evaluated in each experimental test from 2 to 20 days after treatment (DAT). The results, shown as an average of the replications, were compared with results observed in untreated control pots in the same tests.
(§7) Percent control was determined by a method similar to the 0 to 100 rating system disclosed in “Research Methods in Weed Science,” 2nd ed., B. Truelove, Ed.; Southern Weed Science Society; Auburn University, Auburn, Ala., 1977.

Kochia (Kochia scoparia) = assay: Example 4 post-emergence greenhouse pot test, kochia
Protocol: as §4, §5, §6, §7

## O=C(O)c1c(Cl)ccc2cc(Cl)cnc12 [B, 3,7-dichloro-8-quinolinecarboxylic acid]
[1]; 7 DAT
  Percent Control: 75%
[1]; 14 DAT
  Percent Control: 55%
[1]; 21 DAT
  Percent Control: 78%
[1]; 28 DAT
  Percent Control: 67%
[1]; 41 DAT
  Percent Control: 57%
[2]; 7 DAT
  Percent Control: 43%
[2]; 14 DAT
  Percent Control: 46%
[2]; 21 DAT
  Percent Control: 43%
[2]; 28 DAT
  Percent Control: 41%
[2]; 41 DAT
  Percent Control: 37%
[3]; 7 DAT
  Percent Control: 50%
[3]; 14 DAT
  Percent Control: 50%
[3]; 21 DAT
  Percent Control: 50%
[3]; 28 DAT
  Percent Control: 63%
[4]; 7 DAT
  Percent Control: 100%
[4]; 14 DAT
  Percent Control: 40%
[4]; 21 DAT
  Percent Control: 10%
[4]; 28 DAT
  Percent Control: 13%
[5]; 7 DAT
  Percent Control: 60%
[5]; 14 DAT
  Percent Control: 87%
[5]; 21 DAT
  Percent Control: 82%
[6]; 7 DAT
  Percent Control: 83%
[6]; 14 DAT
  Percent Control: 100%
[6]; 21 DAT
  Percent Control: 100%
Crabgrass (Digitaria sp); 0.25 lb ai/acre, 2 DAT
  Percent Control: 10%
Crabgrass (Digitaria sp); 0.25 lb ai/acre, 7 DAT
  Percent Control: 20%
Crabgrass (Digitaria sp); 0.25 lb ai/acre, 14 DAT
  Percent Control: 20%
Crabgrass (Digitaria sp); 0.25 lb ai/acre, 20 DAT
  Percent Control: 10%
Crabgrass (Digitaria sp); 0.5 lb ai/acre, 2 DAT
  Percent Control: 0%
Crabgrass (Digitaria sp); 0.5 lb ai/acre, 7 DAT
  Percent Control: 10%
Crabgrass (Digitaria sp); 0.5 lb ai/acre, 14 DAT
  Percent Control: 60%
Crabgrass (Digitaria sp); 0.5 lb ai/acre, 20 DAT
  Percent Control: 50%
Crabgrass (Digitaria sp); 0.75 lb ai/acre, 2 DAT
  Percent Control: 0%
Crabgrass (Digitaria sp); 0.75 lb ai/acre, 7 DAT
  Percent Control: 0%
Crabgrass (Digitaria sp); 0.75 lb ai/acre, 14 DAT
  Percent Control: 60%
Crabgrass (Digitaria sp); 0.75 lb ai/acre, 20 DAT
  Percent Control: 50%
Crabgrass (Digitaria sp); 1.0 lb ai/acre, 2 DAT
  Percent Control: 0%
Crabgrass (Digitaria sp); 1.0 lb ai/acre, 7 DAT
  Percent Control: 10%
Crabgrass (Digitaria sp); 1.0 lb ai/acre, 14 DAT
  Percent Control: 60%
Crabgrass (Digitaria sp); 1.0 lb ai/acre, 20 DAT
  Percent Control: 70%
Crabgrass (Digitaria sp); 1.25 lb ai/acre, 2 DAT
  Percent Control: 0%
Crabgrass (Digitaria sp); 1.25 lb ai/acre, 7 DAT
  Percent Control: 10%
Crabgrass (Digitaria sp); 1.25 lb ai/acre, 14 DAT
  Percent Control: 60%
Crabgrass (Digitaria sp); 1.25 lb ai/acre, 20 DAT
  Percent Control: 70%
Kochia (Kochia scoparia); 0.25 lb ai/acre, 2 DAT
  Percent Control: 0%
Kochia (Kochia scoparia); 0.25 lb ai/acre, 7 DAT
  Percent Control: 0%
Kochia (Kochia scoparia); 0.25 lb ai/acre, 14 DAT
  Percent Control: 5%
Kochia (Kochia scoparia); 0.25 lb ai/acre, 20 DAT
  Percent Control: 5%
Kochia (Kochia scoparia); 0.5 lb ai/acre, 2 DAT
  Percent Control: 0%
Kochia (Kochia scoparia); 0.5 lb ai/acre, 7 DAT
  Percent Control: 0%
Kochia (Kochia scoparia); 0.5 lb ai/acre, 14 DAT
  Percent Control: 20%
Kochia (Kochia scoparia); 0.5 lb ai/acre, 20 DAT
  Percent Control: 20%
